Literature values in article PMC7247425, “MRP1-Collateral Sensitizers as a Novel Therapeutic Approach in Resistant Cancer Therapy: An In Vitro and In Vivo Study in Lung Resistant Tumor” (International Journal of Molecular Sciences, 2020).

System: MCF7/DX
Parameters: method as in PMID 24106081
Details: resistant MCF7/DX overexpressing P-gp; read-out: EC50, cytotoxic activity in MCF7/DX; cited from earlier work

COc1cc2c(cc1OC)CN(CCCCc1cn(-c3ccc(F)cc3)c3ccccc13)CC2 [F397, 6,7-dimethoxy-2-{4-[1-(4-fluorophenyl)-1H-indol-3-yl]butyl}-1,2,3,4-tetrahydroisoquinoline]
EC50: 21.8 µM
